Assay results from patent US20250276998A1, “NOVEL DAROBACTIN DERIVATIVES” (Helmholtz-Zentrum Fur Infektionsforschung GmbH, priority 2021, published 2025).
≈ marks a conversion by molar mass, not a printed value.

Experiments:
[1] = test system: Klebsiella pneumoniae DSM-30104; experiment: MIC assay of crude extracts, relative activity vs darobactin A; type: cell-based; conditions: crude extract, relative to darobactin A, amount from LC-MS AUC
Method: (§1) Crude extracts of darobactin derivatives obtained by the heterologous expression and separation protocol described above were tested for their activity against exemplified Gram-negative bacteria with a minimum inhibitory concentration (MIC) assay. The presence of darobactin derivatives in the crude extracts was verified by checking the expected masses via LC-MS.
(§2) For the MIC assay, 10 μl of crude extract of each test sample, diluted in 50% methanol/H2O, was added each into a well of the first row of a 96 well plate. […] Then, 75 μl of cation-adjusted Mueller-Hinton broth medium was added to each well and the samples contained in the first row were mixed with the 75 μl medium/extract mixture. Starting from the […] mixtures in the first row, serial dilutions of the respective mixtures were prepared in corresponding subjacent rows of the 96 well plate. Bacterial suspensions of each strain to be tested were diluted 1:100 in cation-adjusted Mueller-Hinton broth to obtain a final inoculum of approximately 10^6 CFU/mL. 75 μl of each bacterial suspension to be tested was added to the respective crude extract samples in the wells of the 96 well plate and the plates were incubated at either 30° C. or 37° C. for at least 24 h under static conditions. Plates were then checked visually and MIC was determined as lowest concentration where no visible growth was observed. In order to quantify the activity of the obtained darobactin derivatives, their relative activity in relation to the activity of darobactin A was determined. The amount of darobactin derivative present in the extract test sample was calculated based on the area under the curve (AUC) of the mass peak as automatically calculated by software DataAnalysis 4.2 and extracted from the LC-MS measurements of each of the crude extract samples. Using the AUC of the mass peak of darobactin A (DA) as calibration standard, i.e. ratio between AUC of darobactin derivative and darobactin A was correlated to amount of compound present in sample. The results of activities of tested darobactin derivatives against exemplified Gram-negative bacteria as compared to the activity of darobactin A are summarized in Table 5 below.

[2] = test system: Pseudomonas aeruginosa PA01; experiment: as above; type: cell-based; conditions: crude extract, relative to darobactin A, amount from LC-MS AUC
Method: as §1, §2

[3] = test system: Acinetobacter baumannii DSM-30008; experiment: as above; type: cell-based; conditions: crude extract, relative to darobactin A, amount from LC-MS AUC
Method: as §1, §2

E. coli ATCC25922 [4] = experiment: as above; type: cell-based, Escherichia coli; conditions: crude extract, relative to darobactin A, amount from LC-MS AUC
Method: as §1, §2

A. baumannii 070 (NDM-1) = experiment: MIC against clinical isolates of A. baumannii; type: cell-based, Acinetobacter baumannii; conditions: clinical isolate A. baumannii 070 (NDM-1)
[5] = test system: A. baumannii 047 (OXA-235); experiment: MIC against clinical isolates of A. baumannii; type: cell-based, Acinetobacter baumannii; conditions: clinical isolate A. baumannii 047 (OXA-235)
[6] = test system: A. baumannii 038 (OXA-23); experiment: MIC against clinical isolates of A. baumannii; type: cell-based, Acinetobacter baumannii; conditions: clinical isolate A. baumannii 038 (OXA-23)
[7] = test system: A. baumannii 054 (OXA-51-ISAba1); experiment: MIC against clinical isolates of A. baumannii; type: cell-based, Acinetobacter baumannii; conditions: clinical isolate A. baumannii 054 (OXA-51-ISAba1)
[8] = test system: A. baumannii 045 (OXA-58); experiment: MIC against clinical isolates of A. baumannii; type: cell-based, Acinetobacter baumannii; conditions: clinical isolate A. baumannii 045 (OXA-58)
[9] = test system: A. baumannii 046 (OXA-40); experiment: MIC against clinical isolates of A. baumannii; type: cell-based, Acinetobacter baumannii; conditions: clinical isolate A. baumannii 046 (OXA-40)
A. baumannii DSM-30008 = experiment: Microbroth dilution of crude extracts, concentration factor at full growth inhibition; type: cell-based, Acinetobacter baumannii; conditions: A. baumannii DMS-30008
Method: (§3) Crude extracts containing the respective darobactin derivatives obtained by the heterologous expression and separation protocol described above were tested for their activity against exemplified Gram-negative bacteria in standard microbroth dilution assays. The presence of darobactin derivatives in the crude extracts was verified by checking the expected masses via LC-HRMS.
(§4) All microorganisms were handled according to standard procedures as recommended by the depositor. Strains were obtained from the German Collection of Cell Cultures and Microorganisms (Klebsiella pneumoniae DSM-30104, Acinetobacter baumannii DSM-30007 and A. baumannii DSM-30008), the American Type Culture Collection (Escherichia coli ATCC-25922), or were part of our internal strain collection (Pseudomonas aeruginosa PAO1, PA14 and PA14ΔmexAB).
(§5) For the MIC assay, 10 μl of crude extract of each test sample, diluted in 50% methanol/H2O, was added each into a well of the first row of a 96 well plate. […] Then, 75 μl of cation-adjusted Mueller-Hinton broth medium was added to each well and the samples contained in the first row were mixed with the 75 μl medium/extract mixture. Starting from the 150 μl mixtures in the first row, serial dilutions of the respective mixtures were prepared in corresponding subjacent rows of the 96 well plate. […]

K. pneumoniae DSM-30104 = experiment: as above; type: cell-based, Klebsiella pneumoniae
Method: as §3, §4, §5

E. coli ATCC25922 [10] = experiment: as above; type: cell-based, Escherichia coli
Method: as §3, §4, §5

P. aeruginosa PAO1 = experiment: as above; type: cell-based, Pseudomonas aeruginosa
Method: as §3, §4, §5

Structure (SMILES)	Relative activity [1]	Relative activity [2]	Relative activity [3]	Relative activity (E. coli ATCC25922 [4])	other results
NCCC[C@H]1c2ccc3c(c[nH]c3c2)[C@H]2Oc3cccc4c(c[nH]c34)C[C@H](N)C(=O)N[C@@H](CCC(N)=O)C(=O)N[C@@H]2C(=O)N[C@@H](CO)C(=O)N[C@@H]1C(=O)N[C@@H](CO)C(=O)N[C@@H](Cc1ccccc1)C(=O)O [Darobactin 11]	++++	+++++	+++++	+++++	–
C[C@H](NC(=O)[C@H]1NC(=O)[C@H](CO)NC(=O)[C@H]2NC(=O)[C@H](CC(N)=O)NC(=O)[C@@H](N)Cc3c[nH]c4c(cccc34)O[C@@H]2c2c[nH]c3cc(ccc23)[C@@H]1CCCN)C(=O)N[C@@H](Cc1ccccc1)C(=O)O [Darobactin 16]	+	+	+	+	–
CCCCCCC1OC(=O)CNC(=O)C(C(C)O)NC(=O)C(CO)NC(=O)C(C(C)CC)NC(=O)C(CC(C)C)N(C)C(=O)C1C (stereo not shown) [Globomycin]	–	–	–	–	MIC (A. baumannii 070 (NDM-1)): 16 µg/mL (≈ 24.4 µM); MIC [5]: 64 µg/mL (≈ 97.6 µM); MIC [6]: 32 µg/mL (≈ 48.8 µM); MIC [7]: >64 µg/mL; MIC [8]: 64 µg/mL (≈ 97.6 µM); MIC [9]: 32 µg/mL (≈ 48.8 µM)
N=C(N)NCC[C@H]1c2ccc3c(c[nH]c3c2)[C@H]2Oc3cccc4c(c[nH]c34)C[C@H](N)C(=O)N[C@@H](CC(N)=O)C(=O)N[C@@H]2C(=O)N[C@@H](CO)C(=O)N[C@@H]1C(=O)N[C@@H](CO)C(=O)N[C@@H](Cc1ccccc1)C(=O)O [Darobactin D]	0	++++	++++	++++	–
NCCC[C@H]1c2ccc3c(c[nH]c3c2)[C@H]2Oc3cccc4c(c[nH]c34)C[C@H](N)C(=O)N[C@@H](CC(N)=O)C(=O)N[C@@H]2C(=O)N[C@@H](CO)C(=O)N[C@@H]1C(=O)N[C@@H](CO)C(=O)N[C@@H](Cc1ccc(O)cc1)C(=O)O [Darobactin 10]	0	+	0	0	–
C[C@@H]1NC(=O)[C@H]2NC(=O)[C@H](CC(N)=O)NC(=O)[C@@H](N)Cc3c[nH]c4c(cccc34)O[C@@H]2c2c[nH]c3cc(ccc23)[C@H](CCCN)[C@@H](C(=O)N[C@@H](CO)C(=O)N[C@@H](Cc2c[nH]c3ccccc23)C(=O)O)NC1=O [Darobactin 30]	–	–	–	–	Concentration factor of crude extract at which full growth inhibition is observed (A. baumannii DSM-30008): 0.83x; Concentration factor of crude extract at which full growth inhibition is observed (K. pneumoniae DSM-30104): 1.67x; Concentration factor of crude extract at which full growth inhibition is observed (E. coli ATCC25922 [10]): 0.83x; Concentration factor of crude extract at which full growth inhibition is observed (P. aeruginosa PAO1): 0.11x
C[C@@H]1NC(=O)[C@H]2NC(=O)[C@H](CC(N)=O)NC(=O)[C@@H](N)Cc3c[nH]c4c(cccc34)O[C@@H]2c2c[nH]c3cc(ccc23)[C@H](CCCN)[C@@H](C(=O)N[C@@H](CO)C(=O)N[C@@H](Cc2ccccc2)C(=O)O)NC1=O [Darobactin 14]	+++	++	++	+++	–
C[C@@H](O)[C@@H]1NC(=O)[C@H]2NC(=O)[C@H](CC(N)=O)NC(=O)[C@@H](N)Cc3c[nH]c4c(cccc34)O[C@@H]2c2c[nH]c3cc(ccc23)C(CCNC(=N)N)[C@@H](C(=O)N[C@@H](CCCNC(=N)N)C(=O)N[C@@H](Cc2c[nH]c3ccccc23)C(=O)O)NC1=O (stereo partly shown) [Darobactin 39]	–	–	–	–	Concentration factor of crude extract at which full growth inhibition is observed (A. baumannii DSM-30008): 0.05x; Concentration factor of crude extract at which full growth inhibition is observed (K. pneumoniae DSM-30104): 0.42x; Concentration factor of crude extract at which full growth inhibition is observed (E. coli ATCC25922 [10]): 0.42x; Concentration factor of crude extract at which full growth inhibition is observed (P. aeruginosa PAO1): 0.11x
